Several values for one entry are separate records, joined by “and”; a condition that tells them apart may be missing. Equal values may be shown once. Read-outs that look alike come from different tables or passages of the source.
Tested on: PGC-1α
Test: PGC-1α assay in differentiated C2C12 cells (ELISA-type antibody detection, absorbance at 450 nm)
Assay type: cell-based
Conditions: each compound tested at 0.01 nM, DMSO control as 100%; for activity at 10 pM: Mus musculus, C2C12, C2C12 myotubes
Protocol: The compounds of Table 2 were synthesized and tested in a PGC-1α assay.
Culture conditions: DMEM containing 25 mM glucose with 10% FBS supplementation; grown at 37° C. and 5% CO2.
Assay Conditions: C2C12 cells were cultured in DMEM supplemented in 10% FBS up to 80% confluence. The cells were further trypsinized and seeded into a 96 well plate at a density of 5000 cells/well (well volume—100 μL) (Day 0). Following attachment, the cells were allowed to reach 80-90% confluence in the plate (typically 48 hours post seeding) and further differentiated using DMEM+2% Horse Serum (200 μL/well). The media was changed every day or at least every alternate day for 5 days to allow myoblasts to differentiate into myotubes. On day 7 (post seeding), the cells were treated with standards and test compounds for PGC-1α assay.
PGC-1α assay: For the detection of PGC-1α, the cells were incubated with […] primary antibody (Merck, WH10010891M3) in PBS-T containing 5% BSA at 4° C. overnight. The cells were then washed three times with PBS-T for 5 minutes and incubated with 1:1000 dilution secondary antibody (Anti-rabbit IgG, HRP-linked Antibody, Cell Signaling) in PBS-T with […] for 1 hour at RT. Cells were washed three times with PBS-T for 5 minutes The cells were incubated with 100 μl TMB substrate solution for 30 minutes and the reaction was stopped with 100 μl of 2N H2SO4. Then the plate was read at 450 nm using ELISA plate reader and absorbance recorded. […] was calculated using DMSO control as 100%. (For plate optical density calculations, a background correction was taken at 540 nm). Each compound was tested at a concentration of 0.01 nM.

[1] = average over experiments, read-out: Single point PGC1-Alpha Assay: Average Activity (%)
[2] = individual experiments (Exp. 1-3), read-out: Single point PGC1-Alpha Assay: Activity (%)

CCN1C(=O)CC[C@@]2(C)C1=CCC1C2[C@@H](O)C[C@@]2(C)C1CC[C@@H]2C(C)=O (some centres unmarked)
activity at 10 pM [1]: 116% | activity at 10 pM [2]: 116%

CCN1C(=O)CC[C@@]2(C)C1=CCC1C2[C@@H](O)C[C@@]2(C)C1CC[C@@H]2C(C)O (some centres unmarked)
activity at 10 pM [1]: 94% | activity at 10 pM [2]: 94%

CCCN1C(=O)CC[C@@]2(C)C1=CCC1C2[C@@H](O)C[C@@]2(C)C1CC[C@@H]2C(C)=O (some centres unmarked)
activity at 10 pM [1]: 109% | activity at 10 pM [2]: 109%

CCN1C(=O)CC[C@@]2(C)C1=CCC1C3CCC(C4(C)OCCO4)[C@@]3(C)C[C@](C)(O)C12 (some centres unmarked)
activity at 10 pM [1]: 119% | activity at 10 pM [2]: 119%

CCN1C(=O)CC[C@@]2(C)C1=CCC1C2[C@@](C)(O)C[C@@]2(C)C1CC[C@@H]2C(C)=O (some centres unmarked)
activity at 10 pM [1]: 118% | activity at 10 pM [2]: 118%

CCN1C(=O)CC[C@@]2(C)C1=CCC1C2[C@@](C)(O)C[C@@]2(C)C1CC[C@@H]2C(C)(C)O (some centres unmarked)
activity at 10 pM [1]: 126% | activity at 10 pM [2]: 126%

[2H][C@]1(O)C[C@@]2(C)C(CC[C@@H]2C(C)=O)C2CC=C3N(CC)C(=O)CC[C@]3(C)C21 (some centres unmarked)
Single point PGC1-Alpha Assay: Activity (%) (C2C12 myotubes, individual experiments (Exp. 1-3), 10 pM): 137% and 112% and 131% | activity at 10 pM [1]: 127%
